Reference: ChEMBL document CHEMBL3045057, “2-D QSAR studies of steroidal natural products oleanic acid and their semisynthetic derivatives as potent protein tyrosine phosphatase 1B inhibitors” (Med Chem Res, 2012)
pIC50: −log10 of the molar value.

Biological target: T1, Tyrosine-protein phosphatase non-receptor type 1 (Homo sapiens, UniProt P18031)
T1 sequence (P18031 whole entry): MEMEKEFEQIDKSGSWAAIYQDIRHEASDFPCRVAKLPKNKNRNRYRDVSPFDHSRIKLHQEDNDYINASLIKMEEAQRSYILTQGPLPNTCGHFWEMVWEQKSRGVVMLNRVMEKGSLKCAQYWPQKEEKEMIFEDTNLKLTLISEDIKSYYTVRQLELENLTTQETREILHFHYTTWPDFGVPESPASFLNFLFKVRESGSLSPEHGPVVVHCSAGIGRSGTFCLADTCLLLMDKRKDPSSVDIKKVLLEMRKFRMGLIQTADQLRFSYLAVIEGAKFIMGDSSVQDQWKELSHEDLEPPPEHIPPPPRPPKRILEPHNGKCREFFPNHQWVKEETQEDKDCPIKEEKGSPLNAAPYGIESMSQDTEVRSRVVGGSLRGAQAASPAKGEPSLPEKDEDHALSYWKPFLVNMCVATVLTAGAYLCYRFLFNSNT
Assay: Inhibition of PTP1B (unknown origin)
Conditions: for pIC50: read-out: IC50; for IC50: read-out: pIC50 (converted)

Row | SMILES | pIC50 | IC50 [nM]
1 | CC1(C)CC[C@]2(CC(=O)NC(Cc3ccc4c(c3)OCO4)C(=O)O)CC[C@]3(C)C(=CC[C@@H]4[C@@]5(C)CC[C@H](O)C(C)(C)[C@@H]5CC[C@]43C)[C@@H]2C1 (some centres not stated) | 6.36 | 440
2 | CC1(C)CC[C@]2(C(=O)OCCCCCCC(=O)O)CC[C@]3(C)C(=CC[C@@H]4[C@@]5(C)CC[C@H](O)C(C)(C)[C@@H]5CC[C@]43C)[C@@H]2C1 | 6.06 | 880
3 | COc1cccc(CC(NC(=O)C[C@]23CCC(C)(C)C[C@H]2C2=CC[C@@H]4[C@@]5(C)CC[C@H](O)C(C)(C)[C@@H]5CC[C@@]4(C)[C@]2(C)CC3)C(=O)O)c1OC (some centres not stated) | 6.18 | 660
4 | COc1ccc(CC(NC(=O)C[C@]23CCC(C)(C)C[C@H]2C2=CC[C@@H]4[C@@]5(C)CC[C@H](O)C(C)(C)[C@@H]5CC[C@@]4(C)[C@]2(C)CC3)C(=O)O)cc1OC (some centres not stated) | 6.09 | 820
5 | CC1(C)CC[C@]2(C(=O)NC(CCC(=O)O)C(=O)O)CC[C@]3(C)C(=CC[C@@H]4[C@@]5(C)CC[C@H](O)C(C)(C)[C@@H]5CC[C@]43C)[C@@H]2C1 (some centres not stated) | 4.79 | 16400
6 | CC1(C)CC[C@]2(C(=O)OCCCCCCCCC(=O)O)CC[C@]3(C)C(=CC[C@@H]4[C@@]5(C)CC[C@H](O)C(C)(C)[C@@H]5CC[C@]43C)[C@@H]2C1 | 6.11 | 780
7 | CC1(C)CC[C@]2(CC(=O)NC(Cc3cnc[nH]3)C(=O)O)CC[C@]3(C)C(=CC[C@@H]4[C@@]5(C)CC[C@H](O)C(C)(C)[C@@H]5CC[C@]43C)[C@@H]2C1 (some centres not stated) | 5.34 | 4620
8 | CC1(C)CC[C@]2(C(=O)O)CC[C@]3(C)C(=CC[C@@H]4[C@@]5(C)CC[C@H](OCc6ccccc6C(=O)O)C(C)(C)[C@@H]5CC[C@]43C)[C@@H]2C1 | 5.34 | 4580
9 | CC1(C)CC[C@]2(CC(=O)NC(CC3=CCc4ccccc43)C(=O)O)CC[C@]3(C)C(=CC[C@@H]4[C@@]5(C)CC[C@H](O)C(C)(C)[C@@H]5CC[C@]43C)[C@@H]2C1 (some centres not stated) | 6.23 | 590
10 | COc1cc(CC(NC(=O)C[C@]23CCC(C)(C)C[C@H]2C2=CC[C@@H]4[C@@]5(C)CC[C@H](O)C(C)(C)[C@@H]5CC[C@@]4(C)[C@]2(C)CC3)C(=O)O)cc(OC)c1 (some centres not stated) | 6.20 | 630
11 | CC1(C)CC[C@]2(C(=O)OCCCCCCCCCCCCC(=O)O)CC[C@]3(C)C(=CC[C@@H]4[C@@]5(C)CC[C@H](O)C(C)(C)[C@@H]5CC[C@]43C)[C@@H]2C1 | 6.23 | 590
12 | CC1(C)CC[C@]2(CC(=O)NC(Cc3ccccc3Cl)C(=O)O)CC[C@]3(C)C(=CC[C@@H]4[C@@]5(C)CC[C@H](O)C(C)(C)[C@@H]5CC[C@]43C)[C@@H]2C1 (some centres not stated) | 6.25 | 560
13 | CC1(C)CC[C@]2(C(=O)Nc3ccc(C(=O)O)cc3)CC[C@]3(C)C(=CC[C@@H]4[C@@]5(C)CC[C@H](O)C(C)(C)[C@@H]5CC[C@]43C)[C@@H]2C1 | 5.51 | 3090
14 | CC1(C)CC[C@]2(C(=O)OCCC(=O)O)CC[C@]3(C)C(=CC[C@@H]4[C@@]5(C)CC[C@H](O)C(C)(C)[C@@H]5CC[C@]43C)[C@@H]2C1 | 5.68 | 2100
15 | CSCCC(NC(=O)C[C@]12CCC(C)(C)C[C@H]1C1=CC[C@@H]3[C@@]4(C)CC[C@H](O)C(C)(C)[C@@H]4CC[C@@]3(C)[C@]1(C)CC2)C(=O)O (some centres not stated) | 6.26 | 550
16 | CC1(C)CC[C@]2(C(=O)O)CC[C@]3(C)C(=CC[C@@H]4[C@@]5(C)CC[C@H](Cc6ccccc6)C(C)(C)[C@@H]5CC[C@]43C)[C@@H]2C1 | 5.57 | 2670
17 | CC1(C)CC[C@]2(C(=O)OCCCCC(=O)O)CC[C@]3(C)C(=CC[C@@H]4[C@@]5(C)CC[C@H](O)C(C)(C)[C@@H]5CC[C@]43C)[C@@H]2C1 | 5.88 | 1330
18 | CC1(C)CC[C@]2(C(=O)O)CC[C@]3(C)C(=CC[C@@H]4[C@@]5(C)CC[C@H](Cc6ccccc6C(=O)O)C(C)(C)[C@@H]5CC[C@]43C)[C@@H]2C1 | 5.57 | 2720
19 | CC1(C)CC[C@]2(C(=O)OCCCCCCCCCCC(=O)O)CC[C@]3(C)C(=CC[C@@H]4[C@@]5(C)CC[C@H](O)C(C)(C)[C@@H]5CC[C@]43C)[C@@H]2C1 | 6.14 | 720

More lines, now with the values ahead:

Row | pIC50 | IC50 [nM] | SMILES
20 | 6.19 | 650 | Cc1ccc(CC(NC(=O)C[C@]23CCC(C)(C)C[C@H]2C2=CC[C@@H]4[C@@]5(C)CC[C@H](O)C(C)(C)[C@@H]5CC[C@@]4(C)[C@]2(C)CC3)C(=O)O)cc1 (some centres not stated)
21 | 6.24 | 570 | CC1(C)CC[C@]2(CC(=O)NC(Cc3ccccc3)C(=O)O)CC[C@]3(C)C(=CC[C@@H]4[C@@]5(C)CC[C@H](O)C(C)(C)[C@@H]5CC[C@]43C)[C@@H]2C1 (some centres not stated)
22 | 5.48 | 3310 | CC1(C)CC[C@]2(C(=O)NC(Cc3ccccc3)C(=O)O)CC[C@]3(C)C(=CC[C@@H]4[C@@]5(C)CC[C@H](O)C(C)(C)[C@@H]5CC[C@]43C)[C@@H]2C1 (some centres not stated)
23 | 6.21 | 610 | CC1(C)CC[C@]2(CC(=O)NC(Cc3ccc(Cl)cc3)C(=O)O)CC[C@]3(C)C(=CC[C@@H]4[C@@]5(C)CC[C@H](O)C(C)(C)[C@@H]5CC[C@]43C)[C@@H]2C1 (some centres not stated)
24 | 6.22 | 600 | COc1ccc(CC(NC(=O)C[C@]23CCC(C)(C)C[C@H]2C2=CC[C@@H]4[C@@]5(C)CC[C@H](O)C(C)(C)[C@@H]5CC[C@@]4(C)[C@]2(C)CC3)C(=O)O)cc1 (some centres not stated)
25 | 6.82 | 150 | CC1(C)CC[C@]2(CCCCC(=O)NC(Cc3ccccc3)C(=O)O)CC[C@]3(C)C(=CC[C@@H]4[C@@]5(C)CC[C@H](OCc6ccc(C(=O)O)cc6)C(C)(C)[C@@H]5CC[C@]43C)[C@@H]2C1 (some centres not stated)
26 | 6.28 | 530 | COc1ccccc1CC(NC(=O)C[C@]12CCC(C)(C)C[C@H]1C1=CC[C@@H]3[C@@]4(C)CC[C@H](O)C(C)(C)[C@@H]4CC[C@@]3(C)[C@]1(C)CC2)C(=O)O (some centres not stated)
27 | 6.24 | 570 | CC1(C)CC[C@]2(CC(=O)NC(Cc3ccc(F)cc3)C(=O)O)CC[C@]3(C)C(=CC[C@@H]4[C@@]5(C)CC[C@H](O)C(C)(C)[C@@H]5CC[C@]43C)[C@@H]2C1 (some centres not stated)
28 | 6.28 | 520 | COc1cccc(CC(NC(=O)C[C@]23CCC(C)(C)C[C@H]2C2=CC[C@@H]4[C@@]5(C)CC[C@H](O)C(C)(C)[C@@H]5CC[C@@]4(C)[C@]2(C)CC3)C(=O)O)c1 (some centres not stated)
29 | 6.35 | 450 | CC1(C)CC[C@]2(CC(=O)NC(Cc3ccc([N+](=O)[O-])cc3)C(=O)O)CC[C@]3(C)C(=CC[C@@H]4[C@@]5(C)CC[C@H](O)C(C)(C)[C@@H]5CC[C@]43C)[C@@H]2C1 (some centres not stated)
30 | 6.26 | 550 | Cc1ccccc1CC(NC(=O)C[C@]12CCC(C)(C)C[C@H]1C1=CC[C@@H]3[C@@]4(C)CC[C@H](O)C(C)(C)[C@@H]4CC[C@@]3(C)[C@]1(C)CC2)C(=O)O (some centres not stated)
31 | 6.29 | 510 | CC1(C)CC[C@]2(CC(=O)NC(Cc3cccc(Cl)c3)C(=O)O)CC[C@]3(C)C(=CC[C@@H]4[C@@]5(C)CC[C@H](O)C(C)(C)[C@@H]5CC[C@]43C)[C@@H]2C1 (some centres not stated)
